{"source": "patent US20090263410A1", "about": "“USE OF TGF-B1 INHIBITOR PEPTIDES IN THE PREPARATION OF AN IMMUNE RESPONSE MODULATING AGENT” (Proyecto De Biomedicina Cima, S.L., priority 2005, published 2009)", "key": {"[1]": {"test_system": "lymphocyte cultures derived from nodes", "assay": "Induction of T-helper response to FIS: IL-2 and IFN-γ in lymph node lymphocyte culture supernatants", "assay_type": "in vivo, BALB/c mice", "protocol": "The FIS peptide is characterized as a T-helper determinant derived from sperm whale myoglobin, amino acids (106-118). This peptide has been widely used for the induction of antibodies against haptenic peptides. We wanted to analyse the effect of peptide p144 on the induction of a cytokine profile characterized among other things by the increase in IFN-γ and IL-12. In this model the following was administered by […] to groups of 3 female BALB/c mice, 4 to 8 weeks old, (Harlan, Barcelona), distributing the animals in the following treatments: • FIS: mice which received by […] a 1:1 emulsion of Freund's incomplete adjuvant and saline serum which contained 50 μg of FIS. • FIS+p144: mice which received by […] a 1:1 emulsion of Freund's incomplete adjuvant and saline serum which contained 50 μg of FIS and 50 μg of p144.\n10 days after immunization, the animals were sacrificed and the popliteal, inguinal and periaortic lymph nodes were extracted. The nodes were homogenized with a syringe and they were washed three times at 4° C. with washing medium (clean RPMI 1640 medium). Next, the cells were resuspended in complete medium (RPMI 1640 with 10% FBS, 2 mM of glutamine, 100 U/ml of penicillin, 100 μg/ml of streptomycin, 5×10^−5 M of β-mercaptoethanol, 25 mM of Hepes and sodium pyruvate), at a concentration of 5.3×10^6 cells/ml adding 150 μl in each well of a flat-bottomed 96-well plate. The different peptide concentrations (6 and 10 μM) were added in triplicate and at a volume of […] per well. The cells were cultured in a stove at 37° C. and with 5% CO2 for two days. […] These supernatants were frozen at −20° C. until the quantification of the cytokine concentration.\nThe quantity of IFN-γ was measured using a commercial ELISA (Mouse IFN-γ Duoset ELISA Development System, Genzyme, Cambridge and OPTEIA Mouse IFN-γ Set, Pharmingen, San Diego, USA) in accordance with the manufacturer's instructions. The results were expressed as pg/ml of IFN-γ using a standard curve of known quantities of IFN-γ.\nThe quantity of IL-2 in each supernatant was measured by studying the proliferation of the CTL.L. cell line, whose growth is IL-2 dependent (Lai M. et al., 1987). […]\nTo perform the assay, the supernatants were cultured with 3000-5000 CTL.L. cells per well, diluted to a final volume of 100 μl. […] The radioactivity was quantified in a scintillation counter (Top Count, Microplate Scintillation Counter, Packard) after the addition of 25 μl of scintillation liquid (MICROSCINT®, Packard, Bioscience Company) per well. The results of the counts were expressed as mU/ml of IL-2, interpolating the counts of each well in a standard curve. […]"}, "CT26 cells": {"test_system": "CT26 cells", "assay": "Subcutaneous CT26 tumour model after AH1 immunization", "assay_type": "in vivo, BALB/c mice", "conditions": "50 μg AH1 day 0; 5×10^5 CT26 s.c. day 10; day 10-30 PS or 50 μg p144 every 48 hours i.p.", "protocol": "Next, the effect of p144 was studied on a tumour progression model which was less aggressive than the intravenous administration of CT26. In this new model, mice were immunized with 50 μg of AH1 on day 0 and ten days later they were administered 5×10^5 CT26 cells by subcutaneous route. Furthermore, with the aim of testing the effect of blocking TGF-β1 on protection against CT26 tumour cells, another two groups of mice (groups 2 and 3) were treated on alternate days by intraperitoneal route between days 10-30 with 50 μg of p144."}, "[2]": {"conditions": "50 μg FIS + 50 μg p144 in FIA versus FIS alone, in vitro restimulation with FIS"}, "[3]": {"conditions": "lymphocytes from mice immunized with FIS+p144"}}, "data": [{"substance": "p144: peptide inhibiting TGF-β1 whose amino acid sequence corresponds to SEQ ID NO: 1 (TSLDASIIWAMMQN; Synthetic Construct from human TGB-Beta1 type III receptor.Domain730-743)", "values": [{"measurement": "IFN-γ production compared to FIS", "setting": "[1]; [2]", "value": "reduced"}, {"measurement": "IL-2 production compared to FIS", "setting": "[1]; [2]", "value": "reduced"}, {"measurement": "IFN-γ production when restimulating in vitro against p144", "setting": "[1]; [3]", "value": "some production of IFN-γ"}, {"measurement": "IL-2 production when restimulating in vitro against p144", "setting": "[1]; [3]", "value": "production of IL-2"}, {"measurement": "Animals protected on day 50", "setting": "CT26 cells", "value": "4/10"}]}]}
